According to patent publication US20240033256A1, “INHIBITORS OF POSITIVE STRAND RNA VIRUSES” (priority 2020, published 2024):

System: SARS-CoV-2
Assay: SARS-CoV-2 cytopathic effect (CPE) by visualization in infected Vero E6 cells
Assay type: cell-based
Details: Severe acute respiratory syndrome coronavirus 2, Vero C1008, read-out: SARS-CoV-2 inhibition EC50, CPE
Method: Compounds 1-3 were examined for their inhibitory activity against SARS-CoV-2 in Vero E6 cells. Cytopathic effects (“CPE”) of SARS-CoV-2 infected Vero E6 cells, with treatment of compounds in 2-fold dilution at a series of 12 concentrations, were visualized. EC50 and CC50 values were calculated.

Row | Structure (SMILES) | EC50 [nM]
1 | CCN1Cc2c(c3ccc(OC)cc3c3cc(OC)c(OC)cc23)C(O)C1C (stereo not shown) [Compound 3] | 20

System: Dengue virus type 2
Assay: Dengue virus type 2 IFA assay (E protein) in Vero E6 cells
Assay type: cell-based
Details: Dengue virus, Vero C1008, 120 h, MOI 0.02, 5 days at 33° C, read-out: DV2 EC50
Method: (§1) Compounds 1-9 were evaluated for their inhibitory activities against Dengue virus, another single positive-stranded RNA virus belonging to genus of flavivirus, using an IFA assay that targeted the Dengue virus Envelope (“E”) protein.
(§2) Vero E6 cells (BCRC #60476, Bioresource Collection and Research Center, Hsinchu, Taiwan) were treated with one of Compounds 1-9 at a predetermined concentration for 1 hour at 37° C. The cells were infected with Dengue virus type 1 (“DV1”, ATCC VR-1856, American Type Culture Collection, Manassas, VA, USA) at MOI=0.002 or Dengue virus type 2 (“DV2”, ATCC VR-1584, American Type Culture Collection, Manassas, VA, USA) at MOI=0.02, both for 5 days at 33° C. They were then fixed with 10% formalin and permeabilized with methanol. Subsequently, the cells were stained with anti-flavivirus E antibody (ATCC HB-112, American Type Culture Collection, Manassas, VA, USA) and anti-mouse IgG-FITC (MP Biomedicals, Irvine, CA, USA). The nuclei of the cells were counter stained with DAPI (Thermo Fisher Scientific, MA, USA). The E protein expression was measured by using a high-content image analysis system (Molecular Devices). The cell viability was determined by MTS. EC50 and CC50 were calculated by Prism software.

Row | Structure (SMILES) | EC50 [nM]
2 | CCN1Cc2c(c3ccc(OC)cc3c3cc(OC)c(OC)cc23)C(O)C1C (stereo not shown) [Compound 3] | 29
3 | COc1cc2c3c(c4cc(OC)c(OC)cc4c2cc1OC)CN1CCCCC1C3 (stereo not shown) [Compound 4] | 8.3

System: Zika virus
Assay: Zika virus IFA assay (E protein) in Vero E6 cells
Assay type: cell-based
Details: Zika virus, Vero C1008, 49 h, Vero E6 cells; MOI 0.02; 49 hours; read-out: EC50 (Zika virus)
Method: Compounds 1-9 were evaluated for their inhibitory activities against Zika virus using an IFA assay, which targeted Zika virus Envelope (“E”) protein.
(§3) Vero E6 cells (BCRC #60476, Bioresource Collection and Research Center, Hsinchu, Taiwan) were treated with one of Compounds 1-9 at a predetermined concentration for 1 hour at 37° C. The cells were adsorbed with Zika virus (ATCC VR-1843, American Type Culture Collection, Manassas, VA, USA) at MOI=0.02 for 49 hours at 37° C. The cells were fixed with 10% formalin, permeabilized with methanol. The cells were stained with anti-flavivirus E antibody (ATCC HB-112, American Type Culture Collection, Manassas, VA, USA) and anti-mouse IgG-FITC (MP Biomedicals, Irvine, CA, USA). The nuclei were counter stained with DAPI (in blue) (Thermo Fisher Scientific, MA, USA). The E protein expression was measured using a high-content image analysis system (Molecular Devices). The cell viability was determined by MTS. Both EC50 and CC50 were calculated by Prism software.

Row | Structure (SMILES) | EC50 [nM]
4 | CCN1Cc2c(c3ccc(OC)cc3c3cc(OC)c(OC)cc23)C(O)C1C (stereo not shown) [Compound 3] | 15.9
5 | COc1cc2c3c(c4cc(OC)c(OC)cc4c2cc1OC)CN1CCCCC1C3 (stereo not shown) [Compound 4] | 13.3

System: HCoV-OC43
Assay: HCoV-OC43 IFA assay (N protein) in HCT-8 cells
Assay type: cell-based
Details: Betacoronavirus 1, OC43; HCT-8 cells; MOI 0.05; means ± S.D. from three independent experiments; read-out: EC50 (HCoV-OC43)

Row | Structure (SMILES) | EC50 [nM]
6 | CCN1Cc2c(c3ccc(OC)cc3c3cc(OC)c(OC)cc23)C(O)C1C (stereo not shown) [Compound 3] | 55.9 ± 6.2
7 | COc1cc2c3c(c4cc(OC)c(OC)cc4c2cc1OC)CN1CCCCC1C3 (stereo not shown) [Compound 4] | 51.7 ± 6.1

System: SARS-CoV-2
Assay: SARS-CoV-2 immunofluorescence assay (IFA), N protein expression in Vero E6 cells
Assay type: cell-based
Details: Severe acute respiratory syndrome coronavirus 2, Vero C1008, 48 h; Vero E6 cells; MOI 0.01; 2 days; run 1; read-out: SARS-CoV-2 inhibition EC50, IFA-1
Method: Vero E6 cells derived from BCRC #60476 (Bioresource Collection and Research Center, Hsinchu, Taiwan) were treated with each compound at an indicated concentration for 1 hour at 37° C. The cells were adsorbed with SARS-CoV-2 viruses (TCDC #4, National Taiwan University, Taipei, Taiwan, ROC) at multiplicity of infection (“MOI”) of 0.01 for 1 hour at 37° C. After virus adsorption, the cells were washed with phosphate-buffered saline (“PBS”). A fresh medium containing the compound was added at an indicated concentration. The resultant mixture was incubated for 2 days. The cells were fixed with 4% paraformaldehyde and permeabilized with a 0.5% Triton™ X-100 detergent solution (Thermo Fisher Scientific, Waltham, MA). Subsequently, they were stained with an anti-SARS-CoV-2 N protein antibody and anti-human IgG-488 (in green). The nuclei of the cells were counter stained with 4′,6-diamidino-2-phenylindole (“DAPI”, Thermo Fisher Scientific, MA, USA). The N protein expression was measured using a high-content image analysis system (Molecular Devices, San Jose, CA). The cell viability was determined by Cell Counting Kit-8 (Sigma-Aldrich, St. Louis, MO) EC50 and CC50 values were calculated by Prism software. […] Both EC50 and CC50 are measured in molar units, e.g., mol/L (“M”), μmol/L (“μM”), and nmol/L (“nM”).

Row | Structure (SMILES) | EC50 [nM]
8 | CCN1Cc2c(c3ccc(OC)cc3c3cc(OC)c(OC)cc23)C(O)C1C (stereo not shown) [Compound 3] | 31.6

Same assay, conditions: Severe acute respiratory syndrome coronavirus 2, Vero C1008, 48 h; Vero E6 cells; MOI 0.01; 2 days; run 2; read-out: SARS-CoV-2 inhibition EC50, IFA-2

Row | Structure (SMILES) | EC50 [nM]
9 | CCN1Cc2c(c3ccc(OC)cc3c3cc(OC)c(OC)cc23)C(O)C1C (stereo not shown) [Compound 3] | 31.9

Same assay, conditions: Severe acute respiratory syndrome coronavirus 2, Vero C1008; IFA; range over Compounds 1, 2 and 3; read-out: EC50 against SARS-CoV-2 (range given)

Row | Structure (SMILES) | EC50 [nM]
10 | CCN1Cc2c(c3ccc(OC)cc3c3cc(OC)c(OC)cc23)C(O)C1C (stereo not shown) [Compound 3] | 9 to 77

System: Dengue virus type 1
Assay: Dengue virus type 1 IFA assay (E protein) in Vero E6 cells
Assay type: cell-based
Details: Dengue virus, Vero C1008, 120 h, MOI 0.002, 5 days at 33° C, read-out: DV1 EC50
Method: as §1, §2

Row | Structure (SMILES) | EC50 [nM]
11 | CCN1Cc2c(c3ccc(OC)cc3c3cc(OC)c(OC)cc23)C(O)C1C (stereo not shown) [Compound 3] | 19.6
12 | COc1cc2c3c(c4cc(OC)c(OC)cc4c2cc1OC)CN1CCCCC1C3 (stereo not shown) [Compound 4] | 7.6

System: not listed separately
Assay: HCT-8 cell viability (MTS)
Details: human, HCT-8 cells

Row | Structure (SMILES) | CC50 [nM]
13 | CCN1Cc2c(c3ccc(OC)cc3c3cc(OC)c(OC)cc23)C(O)C1C (stereo not shown) [Compound 3] | > 10000
14 | COc1cc2c3c(c4cc(OC)c(OC)cc4c2cc1OC)CN1CCCCC1C3 (stereo not shown) [Compound 4] | > 10000

System: HCoV-229E
Assay: HCoV-229E cytopathic effect / end point assay by TCID50 with crystal violet in MRC5 cells
Details: Human coronavirus 229E, MRC5, read-out: EC50 (HCoV-229E)
Method: An end point assay by TCID50 was performed. Crystal violet was used to stain live cells to determine the EC50 of each compound. Further, CC50 and selective index were calculated.

Row | Structure (SMILES) | EC50 [nM]
15 | CCN1Cc2c(c3ccc(OC)cc3c3cc(OC)c(OC)cc23)C(O)C1C (stereo not shown) [Compound 3] | 25.4 ± 3.1

System: not listed separately
Assay: Vero E6 cell viability by MTS (Dengue study)
Assay type: cell-based
Details: African green monkey, Vero E6 cells
Method: as §2

Row | Structure (SMILES) | CC50 [nM]
16 | CCN1Cc2c(c3ccc(OC)cc3c3cc(OC)c(OC)cc23)C(O)C1C (stereo not shown) [Compound 3] | > 5000
17 | COc1cc2c3c(c4cc(OC)c(OC)cc4c2cc1OC)CN1CCCCC1C3 (stereo not shown) [Compound 4] | > 5000

System: not listed separately
Assay: Vero E6 cell viability by MTS (Zika study)
Assay type: cell-based
Details: African green monkey, Vero E6 cells
Method: as §3
Their cytotoxic effects were also determined by the MTS assay described above using Vero E6 cells.

Row | Structure (SMILES) | CC50 [nM]
18 | CCN1Cc2c(c3ccc(OC)cc3c3cc(OC)c(OC)cc23)C(O)C1C (stereo not shown) [Compound 3] | > 5000
19 | COc1cc2c3c(c4cc(OC)c(OC)cc4c2cc1OC)CN1CCCCC1C3 (stereo not shown) [Compound 4] | > 5000
